# Results taken from US20250170124A1, “METHODS OF DIAGNOSING AND TREATING NEURODEGENERATIVE DISEASES” (The General Hospital Corporation, priority 2022, published 2025).
# Where two headings read alike, the source gives them in different places.
# Tests used:
# [1] = test system: alpha-synuclein 5′-UTR IRE (SNCA 5′UTR); test: Primary screen/retest: ASYN 5′-UTR IRE-driven luciferase expression in H4 cells; type: cell-based, human; details: Homo sapiens, 48 h
# [2] = test system: PGL3 5′UTR; test: Secondary (counterscreen) luciferase assay in H4-C cells, IRE stem-loop removed; type: cell-based, human; details: versus SNCA 5′UTR
# [3] = test system: PrP-5′UTR (prion protein IRE); type: cell-based, human; details: versus SNCA 5′UTR
# [4] = test system: alpha-synuclein; test: ELISA secondary screen for alpha-synuclein in SH-SY5Y cells; type: cell-based, human; set-up: Decrease syn(%) SHSY5Y cells: unit of the concentration uncertain
# Procedure: FIG. 2 illustrates the results of ELISA experiments with compound 10 in SH-SY5Y cells. […]
# FIG. 18 illustrates alpha Synuclein ELISA (Invitrogen) measurements from SHSY5 undifferentiated neurons treated with the indicated doses (triplicate wells) of compounds 2, 13, 11, 14, 15, and 16) for 48 h.
# A human ASYN ELISA kit was utilized for all ELISA experiments (Invitrogen alpha-synuclein ELISA kit KHB0061) and the kit protocol was followed.
# 1) Plate SH-SY5Y […] cells (Corning, 3570) at 10,000 cells/well in 50 μL phenol red free media (phenol red-free DMEM with 4.5 g/L D-glucose [Lonza, 12-917F] supplemented with 10% FBS [Lonza, 14-503E], 200 μM L-glutamine [Lonza, 17-605E], 100 μM penstrep [Lonza, 17-602E] and 200 μg/mL geneticin [Invitrogen, 10131-027]).
# 2) Lid plates, then incubate cells for 24 hours at 37° C., 5% CO2, 95% humidity in a tissue culture incubator.
# 3) Pin 100 nL of each compound into the assay plates spanning a final concentration range from 100-0.006 μM.
# 4) Incubate plates for 48 h at 37° C., 5% CO2, 95% humidity. Following incubation, add 5 μL of Alamar blue solution per well and allow to incubate for 1 h at 37° C., 5% CO2, 95% humidity.
# 5) Read Alamar blue fluorescence using a Thermo Varioskan (570 nm excitation, 585 nm emission). Remove cell media and add 30 μL cell lysis solution with protease inhibitor (G Biosciences, 786-331; 10 μL/mL).
# 6) Place plates on a plate shaker for 1 h, before removing 20 μL lysate. Transfer cell lysates to 500 μL Eppendorf tubes and centrifuge (Eppendorf Centrifuge 5417C) for 10 min at 13,000 rpm.
# 7) Add 12 μL of the cell supernatant to 48 μL of standard diluent buffer (1:5). Add these samples to ELISA plate wells. Prepare ASYN standard curve wells as described in the kit manual.
# 8) Add 50 μL of anti-α-Synuclein (Detection Antibody) solution to each well, tapping the plate to mix. Cover the plate with a tape seal and incubate for 3 h at RT.
# 9) Wash wells four times with wash buffer using a multichannel pipette and add 100 μL of anti-rabbit IgG-HRP antibody solution to each well. Cover the plate and incubate for 30 min at RT. Wash wells four times with wash buffer and add 100 μL of Stabilized Chromogen to each well. Seal the plate and incubate in the dark at RT for 30 min.
# 10) Finally, add 100 μL of Stop Solution to each well, tapping the plate to mix, and read absorbance at 450 nm using an Envision plate reader (Perkin Elmer).
# [5] = test system: α-Synuclein; test: Decrease of α-syn in iPSC derived DA neurons; type: cell-based, human; set-up: Decrease syn(%) DA neurons: dose or concentration left out as unconfirmed
# [6] = test system: α-Syn in tyrosine hydroxylase positive (TH+) neurons; test: Immunocytochemical quantitation of α-Syn in TH+ SNCA+ neurons; type: cell-based; details: low dose; decreased from 30 %
# Text: FIG. 14 illustrates that immunocytochemical quantitation of effect of Compound 2 on α-Syn expression in tyrosine hydroxylase positive (TH+) α-synuclein positive (SNCA+) neurons. Panel A: antibody stains for TH and α-Syn. TH positive cells were counted. TH positive and SNCA positive cells were counted. The quantification was done by collecting 9 image fields/well with 3 wells/condition Panel B. The images were fed into Cell Profiler (Broad software).
# [7] = test system: α-Synuclein; test: Western blots of α-syn in iPSC derived DA neuron lysates; type: cell-based, human; details: 72 h
# [8] = test system: α-Syn; test: Decrease of α-syn in Triple SNCA cortical neurons; details: Table 2; concentration not given
# [9] = test system: SNCA IRE; test: Spinach fluorescent assay, SNCA IRE fluorescence sensor R7
smiles,measurement,setting,value
"COc1ccc(N(CC(=O)Nc2cc(Cl)ccc2OC)S(=O)(=O)c2c(C)noc2C)cc1 [Compound 2, N-(5-chloro-2-methoxyphenyl)-2-((N-(4-methoxyphenyl)-3,5-dimethylisoxazole)-4-sulfonamido)acetamide]",IC50,[1]; read-out: IC50/M (SNCA 5′UTR),5.8 µM
same,IC50,[1]; read-out: IC50/μM (SNCA 5′UTR),5.8 µM
same,Selectivity PGL3 5′UTR,[2]; Table 2,21-fold
same,Selectivity PGL3 5′UTR,[2]; Table 3,21-fold
same,Selectivity PrP-5′UTR,[3]; Table 2,18-fold
same,Selectivity PrP-5′UTR,[3]; Table 3,18-fold
same,Decrease αsyn(%) SHSY5Y cells,"[4]; Table 2, @ 0.1 μM",25-50 @ 0.1%
same,Decrease syn(%) SHSY5Y cells,"[4]; Table 3, @ 0.1 µM",25-50 @ 0.1M %
same,Decrease αsyn(%) DA neurons,"[5]; Table 2, @ 1 μM",60 @ 1 μM %
same,Decrease syn(%) DA neurons,[5]; Table 3,60 @ 1M %
same,number of TH/SNCA positive cells,[6],18%
same,"inhibition of α-Synuclein protein expression versus β-Syn, γ-Syn, Ferritin, APP and Prion proteins","[7]; 1 μM, normalized to β-Actin",selectively inhibit
same,α-syn levels (Western blot),"[7]; 10 μM and 1 μM compound, β-actin standardized, N=3",reduced
same,Decrease αsyn(%) X3 SNCA neurons,[8],50%
same,binding to SNCA IRE (fluorescence of sensor R7),[9],significant increases in binding
